The text below walks through data of ChEMBL document CHEMBL5113410, “Novel flavonoid hybrids as potent antiviral agents against hepatitis A: Design, synthesis and biological evaluation” (Eur J Med Chem, 2022).

The source made the active and inactive calls. The calls are words filed in the database; no cut-off is given here. A value given as a limit tells only on which side of the number the result lay.

Data set [1] deals with Hepatovirus A. Description: Antiviral activity against hepatitis A virus KRM031 infected in human Huh-7.5.1 cells assessed as reduction in cytoplasmic viral RNA level at 5 to 20 uM incubated for 72 hrs dosed after infection for 6 hrs by RT-qPCR method. Conditions: KRM031, Huh-7.5.1. It is filed as functional, organism-based.
Data set [2] relates to Hepatovirus A. Description: Antiviral activity against hepatitis A virus genotype 1b infected in human Huh-7.5.1 cells assessed as reduction in virus production at 10 uM incubated for 72 hrs by Nano-Glo luciferase assay. It is filed as functional, organism-based.
For data set [3], the system named is Hepatovirus A. Briefly: Antiviral activity against hepatitis A virus HM175 infected in human Huh-7.5.1 cells assessed as reduction in HAV2c Protein expression at 10 uM incubated for 48 hrs by immunofluorescence assay. Format: functional, organism-based.
Data set [4] has as its system Hepatovirus A. Description: Antiviral activity against hepatitis A virus infected in human Huh-7.5.1 cells assessed as reduction in viral RNA replication at 2 to 50 uM incubated for 72 hrs by luciferase reporter dependent subgenomic replicon assay. It is filed as functional. Conditions: dose 2-50 µM.
For data set [5], the system named is Hepatovirus A. Briefly: Antiviral activity against hepatitis A virus HM175/18f infected in human Huh-7.5.1 cells assessed as reduction in HM175 production at 2 to 50 uM incubated for 72 hrs by RT-qPCR method. Format: functional, organism-based. Conditions: dose 2-50 µM, DDE = dose-dependent effect.
The test system of a further data set is Huh7.5.1. Description: Cytotoxicity in human Huh-7.5.1 cells assessed as reduction in cell viability at 10 uM incubated for 72 hrs by CellTiter-Glo luminescent cell viability assay. It is filed as toxicity, cell-based. To be noted: huh7.5.1, 72 h.
Data set [6] in a line: Selectivity index, ratio of CC50 for Cytotoxicity in human Huh-7.5.1 cells to EC50 for Antiviral activity against hepatitis A virus genotype 1b infected in human Huh-7.5.1 cells. Format: toxicity, cell-based. To be noted: read-out: Ratio CC50/EC50.
For data set [7], the system named is Hepatovirus A. Description: Antiviral activity against hepatitis A virus genotype 1b infected in human Huh-7.5.1 cells assessed as reduction in virus production incubated for 72 hrs by Nano-Glo luciferase assay. Format: functional, organism-based. To be noted: for Activity: DDE = dose-dependent effect; for EC50: Huh-7.5.1, 72 h.
The test system of data set [8] is Hepatovirus A. Description: Antiviral activity against hepatitis A virus genotype 1b infected in human Huh-7.5.1 cells assessed as reduction in virus production at 10 uM incubated for 72 hrs after 6 hrs HAV/NLuc infection by Nano-Glo luciferase assay. It is filed as functional, organism-based.
Data set [9] is described as follows: Cytotoxicity in human Huh-7.5.1 cells assessed as reduction in cell viability incubated for 72 hrs by CellTiter-Glo luminescent cell viability assay. Format: toxicity, cell-based, Huh7.5.1.
Data set [10] deals with Hepatovirus A. Briefly: Antiviral activity against hepatitis A virus TICM005 infected in human Huh-7.5.1 cells assessed as reduction in cytoplasmic viral RNA level at 5 to 20 uM incubated for 72 hrs dosed after infection for 6 hrs by RT-qPCR method. Format: functional, organism-based. Conditions: TICM005, Huh-7.5.1.

Regarding `COc1cc(OCC(=O)N/N=C/c2ccc(Cl)s2)cc2c1CCC(c1cc(OC)c(OC)c(OC)c1)O2` (stereo unspecified), the EC50 in the data set on Hepatovirus A [1] turned out to be 8.5 µM; in the data set with Hepatovirus A [7] it was 5.3 µM; in the data set on Hepatovirus A [10], 11.7 µM. The outcome in the data set on Hepatovirus A [2] and in the data set with Hepatovirus A [3] was Active. Further, the “inhibition (INH)” value in the data set with Hepatovirus A [4] came to 98.1%. Also, in the data set with Hepatovirus A [5], the inhibition result was “Dde”. Moreover, the Activity result in the data set on Huh7.5.1 is “Non-Toxic”; in the data set with Hepatovirus A [7], “Dde”. Also, in data set [6], the selectivity ratio is 15.7. The inhibition result in the data set on Hepatovirus A [8] was “Active”. For the same compound, in data set [9], the CC50 at 72 h is 83.3 µM.

Consider `COc1ccc(/C=N/NC(=O)COc2cc(OC)c3c(c2)OC(c2cc(OC)c(OC)c(OC)c2)CC3)cc1` (stereo unspecified), for which the result in the data set with Hepatovirus A [2] was Active. Besides, the Activity entry with Huh7.5.1 is reported as “Toxic”.

For `COc1cc(OCC(=O)N/N=C/c2ccc(Cl)c(O)c2)cc2c1CCC(c1cc(OC)c(OC)c(OC)c1)O2` (stereo unspecified), in the data set with Hepatovirus A [2], the result was Active. Also, the Activity entry with Huh7.5.1 is listed as “Toxic”.

Regarding `COc1cc(OCC(=O)N/N=C/c2ccc(Cl)c(Cl)c2)cc2c1CCC(c1cc(OC)c(OC)c(OC)c1)O2` (stereo unspecified), in the data set on Hepatovirus A [2], the result was Active. In addition, the Activity entry in the data set with Huh7.5.1 was “Toxic”.

`COc1cc(OCC(=O)N/N=C/c2ccc(C)cc2)cc2c1CCC(c1cc(OC)c(OC)c(OC)c1)O2` (stereo unspecified): the EC50 was greater than 20 µM in the data set on Hepatovirus A [1], 9.3 µM in the data set with Hepatovirus A [7] and greater than 20 µM in the data set on Hepatovirus A [10]. Besides, the result in the data set with Hepatovirus A [2] and in the data set on Hepatovirus A [3] was Active. The “inhibition (INH)” value in the data set with Hepatovirus A [4] came to 56.4%. In the data set on Hepatovirus A [5], the inhibition result is “Dde”. In addition, the Activity entry in the data set with Huh7.5.1 was “Non-Toxic”; in the data set on Hepatovirus A [7] it was “Dde”. In addition, in data set [6], the selectivity ratio was determined as 11.1. Besides, in the data set on Hepatovirus A [8], the inhibition result is “Active”. In addition, in data set [9], the CC50 at 72 h turned out to be 103 µM.

For `COc1cc(OCC(=O)N/N=C/c2ccc(Br)cc2)cc2c1CCC(c1cc(OC)c(OC)c(OC)c1)O2` (stereo unspecified), the 50% effective concentration (EC50) is greater than 20 µM in the data set with Hepatovirus A [1], 6.1 µM in the data set on Hepatovirus A [7] and greater than 20 µM in the data set with Hepatovirus A [10]. The result with Hepatovirus A [2] and with Hepatovirus A [3] was Active. For the same compound, the “inhibition (INH)” value in the data set with Hepatovirus A [4] stood at 93%. Also, the inhibition result in the data set with Hepatovirus A [5] is “Dde”. The results for the Activity result in the data set with Huh7.5.1 and in the data set on Hepatovirus A [7] were “Non-Toxic” and “Dde”, respectively. In [6], the selectivity ratio amounted to 25. Also, in the data set on Hepatovirus A [8], the inhibition result was “Active”. For the same compound, in data set [9], the CC50 at 72 h is 152 µM.

`COc1cc(OCC(=O)N/N=C(\C)c2ccccc2O)cc2c1CCC(c1cc(OC)c(OC)c(OC)c1)O2` (stereo unspecified): the result in the data set with Hepatovirus A [2] was Active. Besides, the Activity entry in the data set on Huh7.5.1 was “Toxic”.

As for `COc1cc(OCC(=O)N/N=C/c2ccc(Cl)cc2)cc2c1CCC(c1cc(OC)c(OC)c(OC)c1)O2` (stereo unspecified), the EC50 is 13.1 µM in the data set with Hepatovirus A [1], 5.5 µM in the data set on Hepatovirus A [7] and 14.2 µM in the data set on Hepatovirus A [10]. The outcome with Hepatovirus A [2] and in the data set on Hepatovirus A [3] was Active. The “inhibition (INH)” value with Hepatovirus A [4] stood at 98.3%. The inhibition result in the data set with Hepatovirus A [5] was “Dde”. The Activity entry in the data set on Huh7.5.1 is “Non-Toxic”; in the data set with Hepatovirus A [7], “Dde”. For the same compound, the selectivity ratio in [6] amounted to 16.3. Moreover, the inhibition entry in the data set with Hepatovirus A [8] was “Active”. For the same compound, the cytotoxic concentration (CC50) at 72 h in data set [9] is 89.8 µM.
